# Results reported in US10961309B2, “Reducing systemic regulatory T cell levels or activity for treatment of disease and injury of the CNS” (Yeda Research and Development Co. Ltd, priority 2014, dated 2021).
# Entries after “also recorded” stand apart in the source; their conditions may differ.
# What was measured:
# Type in all cases: in vivo, mouse
# [1] = system: splenocytes (CD4+Foxp3+ Tregs, CD4+ IFN-γ+ T cells); experiment: Flow cytometry of splenocytes; settings: p300i 8.9 mg/kg/d i.p. 1 week vs vehicle (DMSO), aged mice (18 months), a day after cessation
# Procedure: (§1) Mice were transcardially perfused with PBS, and tissues were treated as previously described (Baruch et al, 2013). Brains were dissected and the different brain regions were removed under a dissecting microscope (Stemi DV4; Zeiss) in PBS, and tissues were dissociated using the gentleMACS™ dissociator (Miltenyi Biotec). Choroid plexus tissues were isolated from the lateral, third and fourth ventricles of the brain, incubated at 37° C. for 45 min in PBS (with Ca^2+/Mg^2+) containing 400 U/ml collagenase type IV (Worthington Biochemical Corporation), and then manually homogenized by pipetting. Spleens were mashed with the plunger of a syringe and treated with ACK (ammonium chloride potassium) lysing buffer to remove erythrocytes. In all cases, samples were stained according to the manufacturers' protocols. All samples were filtered through a 70 μm nylon mesh, and blocked with anti-Fc CD16/32 (1:100; BD Biosciences). For intracellular staining of IFN-γ, the cells were incubated with […] (10 ng/ml; Sigma-Aldrich) and ionomycin (250 ng/ml; Sigma-Aldrich) for 6 h, and Brefeldin-A (10 μg/ml; Sigma-Aldrich) was added for the last 4 h. Intracellular labeling of cytokines was done with BD Cytofix/Cytoperm™ Plus fixation/permeabilization kit (cat. no. 555028). For Treg staining, an eBioscience FoxP3 staining buffer set (cat. no. 00-5523-00) was used. The following fluorochrome-labeled monoclonal antibodies were purchased from BD Pharmingen, BioLegend, R&D Systems, or eBiosciences, and used according to the manufacturers' protocols: PE or Alexa Fluor 450-conjugated anti-CD4; PE-conjugated anti-CD25; PerCP-Cy5.5-conjugated anti-CD45; FITC-conjugated anti-TCRβ; APC-conjugated anti-IFN-γ; APC-conjugated anti-FoxP3; Brilliant-violet-conjugated anti-CD45. Cells were analyzed on an LSRII cytometer (BD Biosciences) using FlowJo software. In each experiment, relevant negative control groups, positive controls, and single stained samples for each tissue were used to identify the populations of interest and to exclude other populations.
# [2] = system: IFN-γ-expressing immune cells in the CP; experiment: Flow cytometry of CP IFN-γ-expressing immune cells; settings: p300i 1 week vs vehicle (DMSO), aged mice (18 months), a day after cessation
# Procedure: as §1, with “For Treg staining, an eBioscience FoxP3 staining buffer set (cat. no. 00-5523-00) was used. The following fluorochrome-labeled monoclonal antibodies were purchased from BD Pharmingen, BioLegend, R&D Systems, or eBiosciences, and used according to the manufacturers' protocols: PE or Alexa Fluor 450-conjugated anti-CD4; PE-conjugated anti-CD25; PerCP-Cy5.5-conjugated anti-CD45; FITC-conjugated anti-TCRβ; APC-conjugated anti-IFN-γ; APC-conjugated anti-FoxP3; Brilliant-violet-conjugated anti-CD45.” left out, “In each experiment, relevant negative control groups, positive controls, and single stained samples for each tissue were used to identify the populations of interest and to exclude other populations.” left out
# Aβ plaques = experiment: Aβ plaque quantitation (immunohistochemistry)
# Procedure: Tissue processing and immunohistochemistry were performed on paraffin embedded sectioned mouse (6 μm thick) and human (10 μm thick) brains. For human ICAM-1 staining, primary mouse anti-ICAM (1:20 Abcam; ab2213) antibody was used. Slides were incubated for 10 min with 3% H2O2, and a secondary biotin-conjugated anti-mouse antibody was used, followed by biotin/avidin amplification with Vectastain ABC kit (Vector Laboratories). Subsequently, 3,3′-diaminobenzidine (DAB substrate) (Zytomed kit) was applied; slides were dehydrated and mounted with xylene-based mounting solution. For tissue stainings, mice were transcardially perfused with PBS prior to tissue excision and fixation. CP tissues were isolated under a dissecting microscope (Stemi DV4; Zeiss) from the lateral, third, and fourth ventricles of the brain. For whole mount CP staining, tissues were fixated with 2.5% paraformaldehyde (PFA) for 1 hour at 4° C., and subsequently transferred to PBS containing 0.05% sodium azide. Prior to staining, the dissected tissues were washed with PBS and blocked (20% horse serum, 0.3% Triton X-100, and PBS) for 1 h at room temperature. Whole mount staining with primary antibodies (in PBS containing 2% horse serum and 0.3% Triton X-100), or secondary antibodies, was performed for 1 h at room temperature. Each step was followed by three washes in PBS. The tissues were applied to slides, mounted with Immu-mount (9990402, from Thermo Scientific), and sealed with cover-slips. For staining of sectioned brains, two different tissue preparation protocols (paraffin embedded or microtomed free-floating sections) were applied, as previously described (Baruch et al, 2013; Kunis et al, 2013). The following primary antibodies were used: mouse anti-Aβ (1:300, Covance, #SIG-39320); rabbit anti-GFP (1:100, MBL, #598); rat anti-CD68 (1:300, eBioscience, #14-0681); rat anti-ICAM-1 (1:200, Abcam, #AB2213); goat anti-GFP (1:100, Abcam, #ab6658); rabbit anti-IBA-1 (1:300, Wako, #019-19741); goat anti-IL-10 (1:20, R&D systems, #AF519); rat anti-Foxp3 (1:20, eBioscience, #13-5773-80); rabbit anti-CD3 (1:500, Dako, #IS503); mouse anti-ZO-1, mouse anti-E-Cahedrin, and rabbit anti-Claudin-1 (all 1:100, Invitrogen, #33-9100, #33-4000, #51-9000); rabbit anti-GFAP (1:200, Dako, #Z0334). Secondary antibodies included: Cy2/Cy3/Cy5-conjugated donkey anti-mouse/goat/rabbit/rat antibodies (1:200; all from Jackson Immunoresearch). The slides were exposed to Hoechst nuclear staining (1:4000; Invitrogen Probes) for 1 min. Two negative controls were routinely used in immunostaining procedures, staining with isotype control antibody followed by secondary antibody, or staining with secondary antibody alone. For Foxp3 intracellular staining, antigen retrieval from paraffin-embedded slides was performed using Retreivagen Kit (#550524, #550527; BD Pharmingen™). Microscopic analysis, was performed using a fluorescence microscope (E800; Nikon) or laser-scanning confocal microscope (Carl Zeiss, Inc.). The fluorescence microscope was equipped with a digital camera (DXM 1200F; Nikon), and with either a 20× NA 0.50 or 40× NA 0.75 objective lens (Plan Fluor; Nikon). The confocal microscope was equipped with LSM 510 laser scanning capacity (three lasers: Ar 488, HeNe 543, and HeNe 633). Recordings were made on postfixed tissues using acquisition software (NIS-Elements, F3 [Nikon] or LSM [Carl Zeiss, Inc.]). For quantification of staining intensity, total cell and background staining was measured using ImageJ software (NIH), and intensity of specific staining was calculated, as previously described (Burgess et al, 2010). Images were cropped, merged, and optimized using Photoshop CS6 13.0 (Adobe), and were arranged using Illustrator CS5 15.1 (Adobe).
# From each brain, 6 μm coronal slices were collected, and eight sections per mouse, from four different pre-determined depths throughout the region of interest (dentate gyrus or cerebral cortex) were immunostained. […]
# [3] = system: soluble Aβ1-40 and Aβ1-42; experiment: Soluble Aβ (sAβ) protein quantification by ELISA
# Procedure: Tissue homogenization and sAβ protein extraction was performed as previously described (Schmidt et al, 2005). Briefly, cerebral brain parenchyma was dissected and snap-frozen and kept at −80° C. until homogenization. Proteins were sequentially extracted from samples to obtain separate fractions containing proteins of differing solubility. Samples were homogenized in 10 volumes of ice-cold tissue homogenization buffer, containing 250 mM of sucrose, 20 mM of Tris base, 1 mM of ethylenediaminetetraacetic acid (EDTA), and 1 mM of ethylene glycol tetraacetic acid (pH 7.4), using a ground glass pestle in a Dounce homogenizer. After six strokes, the homogenate was mixed 1:1 with 0.4% diethylamine (DEA) in a 100-mM NaCl solution before an additional six strokes, and then centrifuged at 135,000 g at 4° C. for 45 min. The supernatant (DEA-soluble fraction containing extracellular and cytosolic proteins) was collected and neutralized with 10% of 0.5M of Tris-HCl (pH 6.8). Aβ1-40 and Aβ1-42 were individually measured by enzyme-linked immunosorbent assay (ELISA) from the soluble fraction using commercially available kits (Biolegend; #SIG-38954 and #SIG-38956, respectively) according to the manufacturer instructions.
# [4] = two courses of p300i, interval of 1 month
structure (smiles),measurement,setting,value
"CC1=NN(c2ccc(C(=O)O)cc2)C(=O)/C1=C\c1ccc(-c2cc(C)c(C)cc2[N+](=O)[O-])o1 [p300i, 4-(4-((5-(4,5-dimethyl-2-nitrophenyl)furan-2-yl)methylene)-3-methyl-5-oxo-4,5-dihydro-1H-pyrazol-1-yl)benzoic acid]",IFN-γ-expressing cells (CD4+ T cells) in the spleen,[1],elevated levels; also recorded: elevation
same,IFN-γ-expressing immune cells in the CP,[2],elevated levels; also recorded: elevation
same,cerebral Aβ plaque load,"Aβ plaques; p300i 1 week, examined 3 weeks later, 10-month old AD-Tg mice",significant reduction in cerebral Aβ plaque load
same,cerebral plaque load (cortex 5th layer),"Aβ plaques; single course of p300i, examined 2 months later, AD-Tg mice age 7 months",reduction of cerebral plaque load was evident
same,"reduction of cerebral plaque load, two courses vs single course",Aβ plaques; two courses of p300i with a 1-month interval,stronger
same,cerebral sAβ levels,[3]; one course of p300i,effective in reducing cerebral sAβ
same,cerebral sAβ levels,[3]; [4],effective in reducing cerebral sAβ
same,"effect on sAβ1-42, repeated courses vs one course",[3]; [4],stronger
